Target: FASN enzyme (Homo sapiens, UniProt P49327)
Assay: Enzymatic Assay for FASN Inhibitors
Format: biochemical
Settings: not given
Method: Assays were performed in a 384-well black plate to measure the inhibition of FASN activities by individual compounds herein disclosed. An aliquot of 250 nL of compound was incubated with 10 μL of 40 nM FASN enzyme in assay buffer (50 mM HEPES pH=7.3, 0.5 mM EDTA, 1 mM Ascorbate, 100 mM NaCl and 0.04% TritonX-100) in each well at 25° C. for 60 minutes. After the plate was centrifuged briefly, 10 μL of substrate mix (20 μM Acetyl-CoA, 60 μM Malonyl-CoA, and 100 μM NADPH in assay buffer) was added to each well. The reaction was maintained at 25° C. for 90 minutes. The reaction was then quenched by adding 10 μL of 90 μM 7-Diethylamino-3-(4′-Maleimidylpheynyl)-4-Methylcoumarin in 50/50 Ethanol/H2O solution. The assay plate was incubated at 25° C. for 15 minutes, and read on a plate reader with excitation and emission wavelength at 360 nm and 530 nm, respectively. The IC50 of a given compound was calculated by fitting the dose response curve with a four parameter logistic equation.

FASN enzyme, sequence (P49327 whole entry): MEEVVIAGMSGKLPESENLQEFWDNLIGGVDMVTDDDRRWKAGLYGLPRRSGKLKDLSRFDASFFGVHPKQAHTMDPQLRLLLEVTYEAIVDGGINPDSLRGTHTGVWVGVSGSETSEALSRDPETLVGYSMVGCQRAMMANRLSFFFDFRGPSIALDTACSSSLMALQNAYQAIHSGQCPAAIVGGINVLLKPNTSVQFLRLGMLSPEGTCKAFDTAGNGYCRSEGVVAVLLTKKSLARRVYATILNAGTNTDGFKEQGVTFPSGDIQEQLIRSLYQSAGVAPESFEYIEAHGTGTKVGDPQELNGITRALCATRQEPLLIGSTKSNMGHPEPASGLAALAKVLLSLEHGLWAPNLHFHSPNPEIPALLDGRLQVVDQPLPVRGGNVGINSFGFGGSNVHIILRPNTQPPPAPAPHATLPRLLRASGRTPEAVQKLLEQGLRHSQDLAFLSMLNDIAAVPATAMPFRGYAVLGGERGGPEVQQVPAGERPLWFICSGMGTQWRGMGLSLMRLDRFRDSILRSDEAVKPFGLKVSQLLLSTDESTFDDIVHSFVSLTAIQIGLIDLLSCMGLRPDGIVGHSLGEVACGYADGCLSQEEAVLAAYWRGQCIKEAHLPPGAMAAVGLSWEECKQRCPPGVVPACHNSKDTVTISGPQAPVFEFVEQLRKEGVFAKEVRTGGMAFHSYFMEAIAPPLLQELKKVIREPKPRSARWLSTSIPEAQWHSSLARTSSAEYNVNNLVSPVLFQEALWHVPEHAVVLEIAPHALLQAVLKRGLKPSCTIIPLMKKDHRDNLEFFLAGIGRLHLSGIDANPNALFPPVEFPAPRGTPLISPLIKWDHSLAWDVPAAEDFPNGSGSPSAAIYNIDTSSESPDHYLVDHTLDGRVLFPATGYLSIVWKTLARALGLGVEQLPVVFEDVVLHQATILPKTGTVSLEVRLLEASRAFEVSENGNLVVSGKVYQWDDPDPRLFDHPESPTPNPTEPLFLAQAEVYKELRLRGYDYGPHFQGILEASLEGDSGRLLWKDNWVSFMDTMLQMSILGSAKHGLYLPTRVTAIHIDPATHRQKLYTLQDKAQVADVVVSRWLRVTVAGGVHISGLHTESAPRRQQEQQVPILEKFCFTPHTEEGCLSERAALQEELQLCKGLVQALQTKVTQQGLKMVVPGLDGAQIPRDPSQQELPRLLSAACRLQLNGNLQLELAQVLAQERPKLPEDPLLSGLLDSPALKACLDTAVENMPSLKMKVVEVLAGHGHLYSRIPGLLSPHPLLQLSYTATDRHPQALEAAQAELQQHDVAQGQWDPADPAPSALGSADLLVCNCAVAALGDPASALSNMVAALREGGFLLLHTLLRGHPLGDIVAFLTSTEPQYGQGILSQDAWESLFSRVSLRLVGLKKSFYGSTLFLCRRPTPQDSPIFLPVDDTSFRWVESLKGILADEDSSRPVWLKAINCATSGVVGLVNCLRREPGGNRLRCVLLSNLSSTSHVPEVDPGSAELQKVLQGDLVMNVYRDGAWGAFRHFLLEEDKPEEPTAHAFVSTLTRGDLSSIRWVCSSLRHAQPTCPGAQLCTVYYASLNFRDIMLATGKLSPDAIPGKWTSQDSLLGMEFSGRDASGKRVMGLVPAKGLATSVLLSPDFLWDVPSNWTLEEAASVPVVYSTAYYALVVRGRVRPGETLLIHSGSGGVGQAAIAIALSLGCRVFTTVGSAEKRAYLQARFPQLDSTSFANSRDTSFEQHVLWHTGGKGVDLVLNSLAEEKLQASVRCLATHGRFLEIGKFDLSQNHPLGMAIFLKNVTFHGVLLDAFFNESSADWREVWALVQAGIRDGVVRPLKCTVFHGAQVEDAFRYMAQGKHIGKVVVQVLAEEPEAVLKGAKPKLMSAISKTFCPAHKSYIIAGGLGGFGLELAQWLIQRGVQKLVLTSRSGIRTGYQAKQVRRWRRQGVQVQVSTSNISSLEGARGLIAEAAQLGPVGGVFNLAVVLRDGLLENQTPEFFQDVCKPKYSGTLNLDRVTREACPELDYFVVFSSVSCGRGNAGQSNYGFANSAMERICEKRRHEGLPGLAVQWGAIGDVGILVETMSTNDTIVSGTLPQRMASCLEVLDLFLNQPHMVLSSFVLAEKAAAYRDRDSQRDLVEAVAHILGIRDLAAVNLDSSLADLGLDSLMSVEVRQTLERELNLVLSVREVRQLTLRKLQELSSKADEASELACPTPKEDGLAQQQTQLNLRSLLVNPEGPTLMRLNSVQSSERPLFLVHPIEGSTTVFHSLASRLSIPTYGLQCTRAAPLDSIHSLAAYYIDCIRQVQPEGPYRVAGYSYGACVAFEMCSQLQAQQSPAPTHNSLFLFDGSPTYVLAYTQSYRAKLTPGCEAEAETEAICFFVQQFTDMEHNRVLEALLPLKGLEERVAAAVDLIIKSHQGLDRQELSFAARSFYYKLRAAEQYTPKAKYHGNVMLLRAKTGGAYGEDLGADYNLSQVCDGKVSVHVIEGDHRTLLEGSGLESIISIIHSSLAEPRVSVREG

Row | IC50 | SMILES
1 | < 500 nM | O=C(c1ccc(-c2ccccc2)cc1)N1CCN(C(=O)C2(O)CC2)CC1 [1-({4-[(4-phenylphenyl)carbonyl]piperazin-1-yl}carbonyl)cyclopropan-1-ol]
2 | < 500 nM | O=C(c1ccc(-c2nc3ccccn3c2Cl)cc1Cl)N1CCN(C(=O)C2(O)CC2)CC1 [1-[4-(2-chloro-4-{3-chloroimidazo[1,2-a]pyridin-2-yl}benzoyl)piperazine-1-carbonyl]cyclopropan-1-ol]
3 | < 500 nM | O=C(c1ccc(-c2nc3ccccn3c2Cl)c(Cl)c1)N1CCN(C(=O)C2(O)CC2)CC1 [1-[4-(3-chloro-4-{3-chloroimidazo[1,2-a]pyridin-2-yl}benzoyl)piperazine-1-carbonyl]cyclopropan-1-ol]
4 | < 500 nM | O=C(c1ccc(N2CCc3[nH]c4ccccc4c3C2)cc1)N1CCN(C(=O)C2(O)CC2)CC1 [1-[4-(4-{1H,2H,3H,4H,5H-pyrido[4,3-b]indol-2-yl}benzoyl)piperazine-1-carbonyl]cyclopropan-1-ol]
5 | < 500 nM | O=C(c1ccc(N2CCc3c([nH]c4ccccc34)C2)cc1)N1CCN(C(=O)C2(O)CC2)CC1 [1-[4-(4-{1H,2H,3H,4H,9H-pyrido[3,4-b]indol-2-yl}benzoyl)piperazine-1-carbonyl]cyclopropan-1-ol]
6 | < 500 nM | O=C(c1ccc(-c2nc3ccccn3c2Cl)cc1F)N1CCN(C(=O)C2(O)CC2)CC1 [1-[4-(4-{3-chloroimidazo[1,2-a]pyridin-2-yl}-2-fluorobenzoyl)piperazine-1-carbonyl]cyclopropan-1-ol]
7 | < 500 nM | O=C(c1ccc(-c2nc3ccccn3c2Cl)c(F)c1)N1CCN(C(=O)C2(O)CC2)CC1 [1-[4-(4-{3-chloroimidazo[1,2-a]pyridin-2-yl}-3-fluorobenzoyl)piperazine-1-carbonyl]cyclopropan-1-ol]
8 | < 500 nM | Cc1n[nH]c2ncc(-c3ccc(C(=O)N4CCN(C(=O)C5(O)CC5)CC4)cc3)cc12 [1-[4-(4-{3-methyl-1H-pyrazolo[3,4-b]pyridin-5-yl}benzoyl)piperazine-1-carbonyl]cyclopropan-1-ol]
9 | < 500 nM | O=C(c1ccc(N2CCc3sccc3C2)cc1)N1CCN(C(=O)C2(O)CC2)CC1 [1-[4-(4-{4H,5H,6H,7H-thieno[3,2-c]pyridin-5-yl}benzoyl)piperazine-1-carbonyl]cyclopropan-1-ol]
10 | < 500 nM | O=C(c1ccc(-c2ccc3ccnn3c2)cc1)N1CCN(C(=O)C2(O)CC2)CC1 [1-[4-(4-{pyrazolo[1,5-a]pyridin-6-yl}benzoyl)piperazine-1-carbonyl]cyclopropan-1-ol]
11 | < 500 nM | Cn1cnc2cc(-c3ccc(C(=O)N4CCN(C(=O)C5(O)CC5)[C@@H](CO)C4)cc3)ccc21 [1-[(2R)-2-(hydroxymethyl)-4-[4-(1-methyl-1H-1,3-benzodiazol-5-yl)benzoyl]piperazine-1-carbonyl]cyclopropan-1-ol]
12 | < 500 nM | C[C@@H]1CN(C(=O)c2ccc(-c3ccc4c(c3)ncn4C)cc2)CCN1C(=O)C1(O)CC1 [1-[(2R)-2-methyl-4-[4-(1-methyl-1H-1,3-benzodiazol-5-yl)benzoyl]piperazine-1-carbonyl]cyclopropan-1-ol]
13 | < 500 nM | C[C@@H]1CN(C(=O)c2ccc(-c3ccc(Cl)cc3F)cc2)CCN1C(=O)C1(O)CC1 [1-[(2R)-4-[4-(4-chloro-2-fluorophenyl)benzoyl]-2-methylpiperazine-1-carbonyl]cyclopropan-1-ol]
14 | < 500 nM | C[C@@H]1CN(C(=O)c2ccc(-c3nc4ccc(F)cc4o3)cc2)CCN1C(=O)C1(O)CC1 [1-[(2R)-4-[4-(6-fluoro-1,3-benzoxazol-2-yl)benzoyl]-2-methylpiperazine-1-carbonyl]cyclopropan-1-ol]
15 | < 500 nM | C[C@@H]1CN(C(=O)c2ccc(-c3ccc4c(c3)ncn4C)cc2)C[C@H](C)N1C(=O)C1(O)CC1 [1-[(2R,6S)-2,6-dimethyl-4-[4-(1-methyl-1H-1,3-benzodiazol-5-yl)benzoyl]piperazine-1-carbonyl]cyclopropan-1-ol]
16 | < 500 nM | C[C@H]1CN(C(=O)c2ccc(-c3ccc4c(c3)ncn4C)cc2)CCN1C(=O)C1(N)CC1 [1-[(2S)-2-methyl-4-[4-(1-methyl-1H-1,3-benzodiazol-5-yl)benzoyl]piperazine-1-carbonyl]cyclopropan-1-amine]
17 | < 500 nM | C[C@H]1CN(C(=O)c2ccc(-c3ccc4c(c3)ncn4C)cc2)CCN1C(=O)C1(O)CC1 [1-[(2S)-2-methyl-4-[4-(1-methyl-1H-1,3-benzodiazol-5-yl)benzoyl]piperazine-1-carbonyl]cyclopropan-1-ol]
18 | < 500 nM | C[C@H]1CN(C(=O)c2ccc(-c3ccc4cnn(C)c4c3)cc2)CCN1C(=O)C1(O)CC1 [1-[(2S)-2-methyl-4-[4-(1-methyl-1H-indazol-6-yl)benzoyl]piperazine-1-carbonyl]cyclopropan-1-ol]
19 | < 500 nM | C[C@H]1CN(C(=O)c2ccc(-c3ccc4cn(C)nc4c3)cc2)CCN1C(=O)C1(O)CC1 [1-[(2S)-2-methyl-4-[4-(2-methyl-2H-indazol-6-yl)benzoyl]piperazine-1-carbonyl]cyclopropan-1-ol]
20 | < 500 nM | C[C@H]1CN(C(=O)c2ccc(N3CCc4cccnc4C3)cc2)CCN1C(=O)C1(O)CC1 [1-[(2S)-2-methyl-4-[4-(5,6,7,8-tetrahydro-1,7-naphthyridin-7-yl)benzoyl]piperazine-1-carbonyl]cyclopropan-1-ol]
21 | < 500 nM | C[C@H]1CN(C(=O)c2ccc(-c3ccc4c(c3)ncn4C)cc2F)CCN1C(=O)C1(O)CC1 [1-[(2S)-4-[2-fluoro-4-(1-methyl-1H-1,3-benzodiazol-5-yl)benzoyl]-2-methylpiperazine-1-carbonyl]cyclopropan-1-ol]
22 | < 500 nM | Cc1nn(C)c2ccc(-c3ccc(C(=O)N4CCN(C(=O)C5(O)CC5)[C@@H](C)C4)cc3)cc12 [1-[(2S)-4-[4-(1,3-dimethyl-1H-indazol-5-yl)benzoyl]-2-methylpiperazine-1-carbonyl]cyclopropan-1-ol]
23 | < 500 nM | C[C@H]1CN(C(=O)c2ccc(-c3nc4ccc(Cl)cc4o3)cc2)CCN1C(=O)C1(O)CC1 [1-[(2S)-4-[4-(6-chloro-1,3-benzoxazol-2-yl)benzoyl]-2-methylpiperazine-1-carbonyl]cyclopropan-1-ol]
24 | < 500 nM | C[C@H]1CN(C(=O)c2ccc(-c3nc4ccc(F)cc4o3)cc2)CCN1C(=O)C1(N)CC1 [1-[(2S)-4-[4-(6-fluoro-1,3-benzoxazol-2-yl)benzoyl]-2-methylpiperazine-1-carbonyl]cyclopropan-1-amine]
25 | < 500 nM | C[C@H]1CN(C(=O)c2ccc(-c3cccc(S(=O)(=O)C4CC4)c3)cc2)CCN1C(=O)C1(O)CC1 [1-[(2S)-4-{4-[3-(cyclopropanesulfonyl)phenyl]benzoyl}-2-methylpiperazine-1-carbonyl]cyclopropan-1-ol]
26 | < 500 nM | C[C@@H]1CN(C(=O)c2ccc(-c3ccc(Cl)cc3F)cc2)C[C@H](C)N1C(=O)C1(O)CC1 [1-[(2S,6R)-4-[4-(4-chloro-2-fluorophenyl)benzoyl]-2,6-dimethylpiperazine-1-carbonyl]cyclopropan-1-ol]
27 | < 500 nM | C[C@@H]1CN(C(=O)c2ccc(-c3nc4ccc(F)cc4o3)cc2)C[C@H](C)N1C(=O)C1(N)CC1 [1-[(2S,6R)-4-[4-(6-fluoro-1,3-benzoxazol-2-yl)benzoyl]-2,6-dimethylpiperazine-1-carbonyl]cyclopropan-1-amine]

Same assay, conditions: FASN enzymatic assay; Table 2-2

Row | IC50 | SMILES
28 | 500 to 5000 nM | O=C(c1ccc(-c2ccccc2)cc1)N1CCN(C(=O)C2(O)CCC2)CC1 [1-({4-[(4-phenylphenyl)carbonyl]piperazin-1-yl}carbonyl)cyclobutan-1-ol]
29 | 500 to 5000 nM | O=C(c1ccc(-c2cnc3ccc(Cl)cn23)cc1)N1CCN(C(=O)C2(O)CC2)CC1 [1-({4-[(4-{6-chloroimidazo[1,2-a]pyridin-3-yl}phenyl)carbonyl]piperazin-1-yl}carbonyl)cyclopropan-1-ol]
30 | 500 to 5000 nM | COc1ccc2nc(-c3ccc(C(=O)N4CCN(C(=O)C5(O)CC5)CC4)cc3)cn2c1 [1-({4-[(4-{6-methoxyimidazo[1,2-a]pyridin-2-yl}phenyl)carbonyl]piperazin-1-yl}carbonyl)cyclopropan-1-ol]
31 | 500 to 5000 nM | O=C(c1ccc(-c2nccc3occc23)cc1)N1CCN(C(=O)C2(O)CC2)CC1 [1-({4-[(4-{furo[3,2-c]pyridin-4-yl}phenyl)carbonyl]piperazin-1-yl}carbonyl)cyclopropan-1-ol]
32 | 500 to 5000 nM | O=C(c1ccc(-c2cn3ccnc3cn2)cc1)N1CCN(C(=O)C2(O)CC2)CC1 [1-({4-[(4-{imidazo[1,2-a]pyrazin-6-yl}phenyl)carbonyl]piperazin-1-yl}carbonyl)cyclopropan-1-ol]
33 | 500 to 5000 nM | O=C(c1ccc(-c2ccc3nccn3c2)cc1)N1CCN(C(=O)C2(O)CC2)CC1 [1-({4-[(4-{imidazo[1,2-a]pyridin-6-yl}phenyl)carbonyl]piperazin-1-yl}carbonyl)cyclopropan-1-ol]
34 | 500 to 5000 nM | O=C(c1ccc(-c2ccn3ccnc3n2)cc1)N1CCN(C(=O)C2(O)CC2)CC1 [1-({4-[(4-{imidazo[1,2-a]pyrimidin-7-yl}phenyl)carbonyl]piperazin-1-yl}carbonyl)cyclopropan-1-ol]

Same assay, conditions: FASN enzymatic assay; Table 2-3

Row | IC50 | SMILES
35 | ≥ 5000 nM | O=C(c1ccc(-c2ccccc2)cc1)N1CCN(C(=O)C2(O)CCCC2)CC1 [1-({4-[(4-phenylphenyl)carbonyl]piperazin-1-yl}carbonyl)cyclopentan-1-ol]
36 | ≥ 5000 nM | O=C(c1ccc(-c2cn3cc(F)ccc3n2)cc1)N1CCN(C(=O)C2(O)CC2)CC1 [1-({4-[(4-{6-fluoroimidazo[1,2-a]pyridin-2-yl}phenyl)carbonyl]piperazin-1-yl}carbonyl)cyclopropan-1-ol]
